Values after ≈ are worked out from the molar mass of the structure shown. “Also recorded” adds a separate entry of the source. Each block holds one compound with its values, some of them ahead of it.
Key:
[1] = system: advanced hematologic malignancies with an IDH2 mutation; assay: NRAS mutation status and COMPOUND 1 response (next generation sequencing of screening samples, Fisher's exact test); type: in vivo, human
Experimental: A subset of the clinical samples from the trial described in Example 1 were analyzed at screening. Sample types included bone marrow, peripheral blood and mononuclear cells isolated from bone marrow or peripheral blood. DNAs were extracted from these samples and sequenced at Foundation Medicine (see http://foundationone.com/learn.php) using next generation sequencing technique.
A total of 60 genes were identified to carry at least one mutation in the analyzed set (including IDH2 gene). Fisher's exact test was conducted to evaluate the association of somatic mutations with clinical response (responders include CR, CRp, CRi and PR, indicated as +, while none-responders include SD and PD, indicated as—in Table 11). The P-values were adjusted by multiple-test correction.
Mutation status positive (+) means any known mutation(s) in NRAS, and negative (−) means no mutation in NRAS was present.
Positive response status (+) includes CR, mCR and PR and negative response status (−) includes stable disease (SD) and progressive disease (PD).

[2] = system: advanced hematologic malignancies with an IDH2 mutation; assay: Phase 1/2 study AG221-C-001: clinical activity and safety; type: in vivo, human
Description: (§1) This is a Phase 1/2, multicenter, open-label, 3-part (Phase 1 dose escalation, Phase 1 Part 1 Expansion, and Phase 2), safety, PK/PD, and clinical activity evaluation of orally administered COMPOUND 1 in subjects with advanced hematologic malignancies that harbor an IDH2 mutation. The study includes a dose escalation phase to determine MTD/MAD and/or RP2D, an expansion phase (Part 1) to further evaluate the safety, tolerability, and clinical activity of COMPOUND 1, and a Phase 2 to assess the clinical efficacy of COMPOUND 1 at the RP2D and to further evaluate safety in subjects with refractory and relapsed AML carrying an IDH2 mutation.
Subjects in the dose escalation phase and Part 1 Expansion will have the extent of their disease assessed, including bone marrow biopsies and/or aspirates and peripheral blood, at screening, on C1D15, C2D1, and C3D1, every 28 days (peripheral blood only) or every 56 days (bone marrow biopsies and/or aspirates and peripheral blood) thereafter while on study drug treatment, independent of dose delays and/or dose interruptions, and/or at any time when progression of disease is suspected. Response to treatment and treatment decisions in all subjects will be determined by the Investigators based on modified International Working Group (IWG) response criteria or other appropriate response criteria for the malignancy under study. […]

2-HG = assay: Phase 1/2 study AG221-C-001: pharmacodynamic response (2-HG plasma levels); type: in vivo, human
Description: as §1
Subjects in the dose escalation phase and Part 1 Expansion also will undergo PK/PD assessments over a 10-hour period on C1D15, C2D1, and C4D1. […] These subjects will have urine collected for PK/PD evaluation at screening; prior to dosing on C1D15, C2D1 and Day 1 of all cycles thereafter; and at the End of Treatment visit. Available bone marrow biopsy samples also will be assessed for 2-HG and α-KG levels.
The starting dose of COMPOUND 1 recommended for evaluation is 100 mg QD. This is based on the safety, PK, pharmacodynamics and clinical activity of COMPOUND 1 observed to date in AG221-C-001. […] Thus a dose of 100 mg should adequately achieve inhibition of 2-HG in subjects with either R140Q or R172K mutation.
Serial blood sampling for determination of concentration-time profiles of COMPOUND 1 and its metabolite (6-(6-(trifluoromethyl)pyridin-2-yl)-N2-(2-(trifluoromethyl)pyridin-4-yl)-1,3,5-triazine-2,4-diamine). Urine sampling for determination of concentrations of COMPOUND 1 and its metabolite (6-(6-(trifluoromethyl)pyridin-2-yl)-N2-(2-(trifluoromethyl)pyridin-4-yl)-1,3,5-triazine-2,4-diamine) (dose escalation and Part 1 expansion subjects only). Blood and bone marrow sampling for determination of 2-HG and α-KG levels.

[3] = solubility in fasted state simulated intestinal fluid (FASSIF); type: physicochemical; settings: pH 6.1, fassif, thermodynamic from solid, pH of 6.1 at 4 hours
Experimental: In comparison, amorphous spray-dried dispersions have a solubility of about 0.05 mg/mL to about 0.50 mg/mL in FASSIF at 3 hours.

[4] = system: advanced hematologic malignancies with an IDH1 mutation; assay: NRAS mutation status and COMPOUND 2 response (subset of clinical samples of the Phase 1 trial); type: in vivo, human; settings: cancer with mutant allele of IDH1
Description: This study is a Phase 1, multicenter, open-label, dose-escalation, safety, PK/PD, and clinical activity evaluation of orally administered COMPOUND 2 in subjects with advanced hematologic malignancies that harbor an IDH1 mutation. The study includes a dose escalation phase to determine MTD and/or RP2D followed by expansion arms to further evaluate the safety, tolerability, and clinical activity of COMPOUND 2 in select populations.
A analysis of a subset of the clinical samples from the trial for COMPOUND 2 was conducted. FIG. 14 provides a visual of NRAS mutations according to response categories for COMPOUND 2. FIG. 14 profiles bone marrow at screening visit for patients only where genes were mutated in ≥2. In FIG. 14, genes (y-axis) are shown in decreasing order of frequency, with the exception of IDH2, while patients (x-axis) are grouped by response then by similarity in alterations; only patients from dose escalation phase with an evaluable response included.
A subset of the clinical samples from the trial for COMPOUND 2 described in Example 3 was analyzed for mutations in the samples. FIG. 14 provides a visual of commutations, including NRAS mutations according to response categories for COMPOUND 2. FIG. 14 profiles bone marrow at screening visit for patients only where genes were mutated in ≥2. […]

SMILES: CC(C)(O)CNc1nc(Nc2ccnc(C(F)(F)F)c2)nc(-c2cccc(C(F)(F)F)n2)n1 [COMPOUND 1, 2-methyl-1-[(4-[6-(trifluoromethyl)pyridin-2-yl]-6-{[2-(trifluoromethyl)pyridin-4-yl]amino}-1,3,5-triazin-2-yl)amino]propan-2-ol]
association of NRAS mutation status with response ([1]; cancer with mutant allele of IDH2): associated with responses; also recorded: significantly associated
number of patients, response status − , NRAS mutation + ([1]; non-responders (SD, PD), any known NRAS mutation): 21
number of patients, response status − , NRAS mutation − ([1]; non-responders (SD, PD), no NRAS mutation): 40
number of patients, response status + , NRAS mutation + ([1]; responders, any known NRAS mutation, N = 118 analyzed): 2
number of patients, response status + , NRAS mutation − ([1]; responders, no NRAS mutation, N = 118 analyzed): 55
safety profile, including ≥Grade 3 ([2]; 100 mg): consistent with that of lower doses
overall response rate ([2]; 44 subjects treated at 100 mg QD, preliminary efficacy data): 36.4%
reduction in 2-HG plasma levels (2-HG; by Day 1 of Cycle 2): sustained reduction
inhibition of 2-HG (2-HG; most subjects with R140Q mutation, all doses, plasma): up to 98%
dose dependence of exposure and inhibition of 2-HG (2-HG; subjects with R172K mutation): Increasing dose is associated with higher exposure and inhibition of 2-HG

solubility at 4 h [3]: ~18 µg/mL (≈ 30.9 µM)
SMILES: N#Cc1ccnc(N2C(=O)CC[C@H]2C(=O)N(c2cncc(F)c2)[C@H](C(=O)NC2CC(F)(F)C2)c2ccccc2Cl)c1 [Form 2]

SMILES: N#Cc1ccnc(N2C(=O)CC[C@H]2C(=O)N(c2cncc(F)c2)[C@H](C(=O)NC2CC(F)(F)C2)c2ccccc2Cl)c1 [COMPOUND 2, (S)—N—((S)-1-(2-chlorophenyl)-2-((3,3-difluorocyclobutyl)amino)-2-oxoethyl)-1-(4-cyanopyridin-2-yl)-N-(5-fluoropyridin-3-yl)-5-oxopyrrolidine-2-carboxamide]
association of NRAS mutation status with response [4]: associated with responses

From patent US20220000878A1, “METHODS OF TREATMENT OF MALIGNANCIES” (Servier Pharmaceuticals, LLC, priority 2015, published 2022)
